Assay: Case report: blood glucose levels in pregnant with gestational diabetes given sesame oil and Nigella sativa oil
Assay type: in vivo, human
Description: A pregnant person diagnosed with gestational diabetes and treated with […] was administered daily with 5 ml sesame oil 100% w/v ([…]) and then co-administered with 5 ml sesame oil 100% w/v (Naissance) and 5 ml 100% w/v Nigella sativa oil (Better Flex). During oil treatment glucamin was not administered.
Blood glucose levels (mg/dL) were determined at the indicated hours.

`NC(=O)CC[C@H](N)C(=O)O` [glutamin] showed a Blood glucose levels (6 AM, 10 Sep. 2020) of 172 mg/dL, a Blood glucose levels (6 AM, 11 Sep. 2020) of 125 mg/dL and a Blood glucose levels (6 AM, 12 Sep. 2020) of 101 mg/dL. The Blood glucose levels (6 AM, 13 Sep. 2020) was 113 mg/dL, the Blood glucose levels (6 AM, 14 Sep. 2020) was 94 mg/dL and the Blood glucose levels (6 AM, 15 Sep. 2020) was 158 mg/dL. For the same compound, the Blood glucose levels (6 AM, 16 Sep. 2020) was 148 mg/dL, the Blood glucose levels (6 AM, 17 Sep. 2020) was 99 mg/dL and the Blood glucose levels (6 AM, 18 Sep. 2020) was 94 mg/dL. The Blood glucose levels (11 AM, 10 Sep. 2020) was 154 mg/dL, the Blood glucose levels (11 AM, 11 Sep. 2020) was 109 mg/dL and the Blood glucose levels (11 AM, 12 Sep. 2020) was 88 mg/dL. For the same compound, the Blood glucose levels (11 AM, 13 Sep. 2020) was 84 mg/dL, the Blood glucose levels (11 AM, 14 Sep. 2020) was 90 mg/dL and the Blood glucose levels (11 AM, 15 Sep. 2020) was 159 mg/dL. It also gave a Blood glucose levels (11 AM, 17 Sep. 2020) of 124 mg/dL, a Blood glucose levels (11 AM, 18 Sep. 2020) of 84 mg/dL and a Blood glucose levels (15 PM, 10 Sep. 2020) of 122 mg/dL. It also gave a Blood glucose levels (15 PM, 11 Sep. 2020) of 126 mg/dL, a Blood glucose levels (15 PM, 12 Sep. 2020) of 106 mg/dL and a Blood glucose levels (15 PM, 13 Sep. 2020) of 125 mg/dL. For the same compound, the Blood glucose levels (15 PM, 14 Sep. 2020) was 134 mg/dL, the Blood glucose levels (15 PM, 15 Sep. 2020) was 98 mg/dL and the Blood glucose levels (15 PM, 16 Sep. 2020) was 154 mg/dL. It also gave a Blood glucose levels (15 PM, 17 Sep. 2020) of 90 mg/dL, a Blood glucose levels (15 PM, 18 Sep. 2020) of 89 mg/dL and a Blood glucose levels (15 PM, 21 Sep. 2020) of 109 mg/dL. For the same compound, the Blood glucose levels (21 PM, 10 Sep. 2020) was 97 mg/dL, the Blood glucose levels (21 PM, 11 Sep. 2020) was 103 mg/dL and the Blood glucose levels (21 PM, 12 Sep. 2020) was 95 mg/dL. For the same compound, the Blood glucose levels (21 PM, 13 Sep. 2020) was 80 mg/dL, the Blood glucose levels (21 PM, 14 Sep. 2020) was 125 mg/dL and the Blood glucose levels (21 PM, 15 Sep. 2020) was 83 mg/dL. For the same compound, the Blood glucose levels (21 PM, 16 Sep. 2020) was 88 mg/dL, the Blood glucose levels (21 PM, 17 Sep. 2020) was 77 mg/dL and the Blood glucose levels (21 PM, 18 Sep. 2020) was 84 mg/dL. For the same compound, the Blood glucose levels (21 PM, 21 Sep. 2020) was 74 mg/dL.
